Test results: the NIST ThermoML archive (doi:10.1016/j.jct.2011.02.008)

Conditions: Liquid, Vibrating tube method

COC(=O)c1ccccc1 [methyl benzoate]
mass density [kg/m3]
Conditions	278.15 K	288.15 K	298.15 K	308.15 K	318.15 K	328.15 K	338.15 K	348.15 K	358.15 K
100 kPa	1101.5	1092.1	1082.7	1073	1063.3	1053.6	1044.1	1034.4	1024.9
1000 kPa	1102.1	1092.6	1083.2	1073.6	1063.8	1054.3	1044.8	1035.1	1025.6
5000 kPa	1104.4	1095	1085.8	1076.2	1066.7	1057.2	1048	1038.4	1029.1
10000 kPa	1107.2	1097.9	1089	1079.5	1070.1	1060.8	1051.7	1042.4	1033.3
15000 kPa	1109.9	1100.8	1091.8	1082.6	1073.4	1064.3	1055.3	1046.2	1037.3
20000 kPa	1112.6	1103.6	1094.8	1085.7	1076.6	1067.6	1058.8	1049.8	1041.2
25000 kPa	1115.2	1106.3	1097.6	1088.6	1079.7	1070.9	1062.2	1053.4	1044.9
30000 kPa	1117.7	1109	1100.4	1091.5	1082.8	1074	1065.5	1056.9	1048.5
35000 kPa	1120.2	1111.6	1103.1	1094.3	1085.7	1077.1	1068.8	1060.3	1052
40000 kPa	1122.7	1114.1	1105.7	1097.1	1088.6	1080.1	1071.9	1063.5	1055.4
45000 kPa	1125.1	1116.6	1108.3	1099.8	1091.4	1083	1074.9	1066.7	1058.7
50000 kPa	1127.4	1119.1	1110.9	1102.4	1094.1	1085.9	1077.9	1069.8	1061.9
55000 kPa	1129.7	1121.4	1113.4	1105	1096.8	1088.7	1080.8	1072.8	1065.1
60000 kPa	1131.8	1123.6	1115.6	1107.4	1099.3	1091.2	1083.5	1075.5	1067.9

CCCCCCO [hexan-1-ol]
mass density [kg/m3]
Conditions	278.15 K	288.15 K	298.15 K	308.15 K	318.15 K	328.15 K	338.15 K	348.15 K	358.15 K
100 kPa	828.9	822.1	814.9	807.8	800.5	793	785.4	777.6	769.4
1000 kPa	829.5	822.7	815.6	808.4	801.2	793.7	786.2	778.4	770
5000 kPa	832	825.3	818.4	811.4	804.3	797	789.6	782	774.2
10000 kPa	835	828.5	821.7	814.8	807.9	800.8	793.6	786.2	778.6
15000 kPa	838	831.6	824.9	818.2	811.4	804.4	797.4	790.2	782.8
20000 kPa	840.8	834.6	828	821.4	814.7	807.9	801	794.1	786.9
25000 kPa	843.6	837.4	830.9	824.5	817.9	811.2	804.5	797.6	790.7
30000 kPa	846.3	840.2	833.8	827.5	821	814.4	807.9	801.2	794.3
35000 kPa	848.9	842.9	836.6	830.3	824	817.6	811.1	804.6	797.9
40000 kPa	851.4	845.5	839.4	833.2	826.9	820.6	814.2	807.8	801.3
45000 kPa	853.9	848	842	835.9	829.7	823.5	817.3	811	804.6
50000 kPa	856.3	850.5	844.6	838.5	832.4	826.4	820.2	814	807.7
55000 kPa	858.7	853	847.1	841.1	835.1	829.1	823.1	817	810.8
60000 kPa	860.9	855.4	849.6	843.5	837.7	831.6	825.7	819.7	813.5
